As a reminder, the inhibition is how much of the control response was suppressed. By IC50 is commonly meant the midpoint of a concentration-inhibition curve. As a reminder, the Ki is the dissociation constant of the complex between target and ligand, obtained from inhibition or displacement. One may read the MIC as the lowest concentration found to suppress growth.

SMILES strings stand for the structures. Converted amounts (≈) assume the structure as drawn. The source made the active and inactive calls. No cut-off for these calls is given here.

Experiment [1] deals with Porphyromonas gingivalis. The experiment is described as follows: Inhibition of Porphyromonas gingivalis recombinant SerB653 phosphatase expressed in Escherichia coli BL21 using phosphoserine as substrate at 50 uM after 1 hr by malachite green colorimetric assay.
The nature of experiment [2]: Inhibition of Porphyromonas gingivalis recombinant SerB653 phosphatase expressed in Escherichia coli BL21 using phosphoserine as substrate after 1 hr by malachite green colorimetric assay.
The nature of experiment [3]: Inhibition of Porphyromonas gingivalis recombinant SerB653 phosphatase expressed in Escherichia coli BL21 using phosphoserine as substrate measured every 10 secs by malachite green colorimetric assay.
Experiment [4] concerns Porphyromonas gingivalis. As to the kind of experiment: Competitive inhibition of Porphyromonas gingivalis recombinant SerB653 phosphatase expressed in Escherichia coli BL21 using phosphoserine as substrate by Lineweaver-Burk plot analysis.
The subject of experiment [5] is Porphyromonas gingivalis. As to the kind of experiment: Antibacterial activity against Porphyromonas gingivalis ATCC 33277 after 2 hrs by broth microdilution method. The format is functional. The note with it: ATCC 33277, 2 h.

Regarding `CC(C)C(=O)c1c(Nc2ccc(Cl)cc2Cl)[nH]c2c(Cl)ccc(Cl)c2c1=O`, the inhibition with Porphyromonas gingivalis [1] worked out at 97.7%. In experiment [2], the IC50 worked out at 8 µM. For the same compound, the inhibition constant Ki in experiment [3] is 2.9 µM.

Take `CC(=O)c1c(Nc2ccc(Cl)cc2Cl)[nH]c2c(C(F)(F)F)cc(Cl)cc2c1=O`: the inhibition in the experiment on Porphyromonas gingivalis [1] came out at 99%. For the same compound, the IC50 in experiment [2] stood at 7 µM. Further, in experiment [3], the Ki is 2.5 µM.

For `O=C(c1c(Nc2cc(F)cc(F)c2)[nH]c2c(Cl)ccc([N+](=O)[O-])c2c1=O)C1CC1`, the inhibition with Porphyromonas gingivalis [1] amounted to 96.2%. The IC50 in experiment [2] amounted to 2.8 µM. For the same compound, the Ki in experiment [3] stood at 1 µM. In addition, the inhibition entry in the experiment with Porphyromonas gingivalis [4] is “Active”. For the same compound, in the experiment with Porphyromonas gingivalis [5], inhibition of growth (MIC) required 0.006 µg/mL (≈ 0.0143 µM).

For `CC(C)C(=O)c1c(Nc2cc(Cl)cc(Cl)c2)[nH]c2c(Cl)ccc(Cl)c2c1=O`, the inhibition in the experiment on Porphyromonas gingivalis [1] amounted to 94.9%. Besides, the IC50 in experiment [2] is 9.2 µM. For the same compound, the Ki in experiment [3] came to 3.3 µM.

On to `CCC(=O)c1c(Nc2cc(Cl)cc(Cl)c2)[nH]c2c(Cl)ccc([N+](=O)[O-])c2c1=O`, for which the inhibition with Porphyromonas gingivalis [1] amounted to 97.4%. In addition, the IC50 in experiment [2] is 6.9 µM. Moreover, in experiment [3], the Ki was found to be 2.5 µM.

`CCC(=O)c1c(Nc2cccc(Cl)c2Cl)[nH]c2c(Cl)ccc([N+](=O)[O-])c2c1=O`: in the experiment on Porphyromonas gingivalis [1], the inhibition was 97.1%. In addition, in experiment [2], the IC50 is 5.5 µM. For the same compound, in experiment [3], the Ki was found to be 2 µM. Also, the lowest concentration to inhibit growth with Porphyromonas gingivalis [5] (MIC) was 0.05 µg/mL (≈ 0.113 µM).

`CCC(=O)c1c(Nc2cc(Cl)ccc2Cl)[nH]c2c(Cl)ccc([N+](=O)[O-])c2c1=O`: the inhibition in the experiment on Porphyromonas gingivalis [1] turned out to be 97.8%. In experiment [2], the IC50 turned out to be 4 µM. Also, the Ki in experiment [3] stood at 1.4 µM. In the experiment with Porphyromonas gingivalis [5], 0.05 µg/mL (≈ 0.113 µM) was the least that counted as inhibitory (MIC).

As for `CCC(=O)c1c(Nc2ccc(Cl)c(Cl)c2)[nH]c2c(Cl)ccc([N+](=O)[O-])c2c1=O`, the inhibition with Porphyromonas gingivalis [1] was 98.5%. For the same compound, the IC50 in experiment [2] is 11.6 µM. Moreover, in experiment [3], the Ki worked out at 4.1 µM.

Turning to `CC(=O)c1c(Nc2ccc(C(F)(F)F)cc2)[nH]c2c(C(F)(F)F)cc(Cl)cc2c1=O`, in the experiment with Porphyromonas gingivalis [1], the inhibition worked out at 97.7%. Further, in experiment [2], the 50% inhibitory concentration (IC50) is 7 µM. In experiment [3], the inhibitory constant (Ki) turned out to be 2.5 µM.

Turning to `O=C(c1c(Nc2cccc(Cl)c2Cl)[nH]c2c(Cl)ccc([N+](=O)[O-])c2c1=O)C1CC1`, the inhibition in the experiment with Porphyromonas gingivalis [1] was found to be 98.5%. Also, in experiment [2], the IC50 is 12.6 µM. Also, the inhibition constant Ki in experiment [3] is 4.5 µM.

(Values after ChEMBL document CHEMBL2010789, “Identification of 3-acyl-2-phenylamino-1,4-dihydroquinolin-4-one derivatives as inhibitors of the phosphatase SerB653 in Porphyromonas gingivalis, implicated in periodontitis” (Bioorg Med Chem Lett, 2012).)
